Laboratory results as given in patent US5648366A, “Substituted pyrrolidin-3-yl-alkyl-piperidines” (Merrell Pharmaceuticals Inc., priority 1995, dated 1997).

Key:
[1] = biological target: T1, human jejunal NK2 receptor (Homo sapiens, UniProt P21452); assay: Antagonism of iodinated tachykinin (125I-neurokinin A) binding to NK2 receptor in HSKR-1 cells
T1 construct: expressed in transfected cells; host or cells: HSKR-1 cells (mouse 3T3 fibroblasts)
T1 sequence (P21452 1-398): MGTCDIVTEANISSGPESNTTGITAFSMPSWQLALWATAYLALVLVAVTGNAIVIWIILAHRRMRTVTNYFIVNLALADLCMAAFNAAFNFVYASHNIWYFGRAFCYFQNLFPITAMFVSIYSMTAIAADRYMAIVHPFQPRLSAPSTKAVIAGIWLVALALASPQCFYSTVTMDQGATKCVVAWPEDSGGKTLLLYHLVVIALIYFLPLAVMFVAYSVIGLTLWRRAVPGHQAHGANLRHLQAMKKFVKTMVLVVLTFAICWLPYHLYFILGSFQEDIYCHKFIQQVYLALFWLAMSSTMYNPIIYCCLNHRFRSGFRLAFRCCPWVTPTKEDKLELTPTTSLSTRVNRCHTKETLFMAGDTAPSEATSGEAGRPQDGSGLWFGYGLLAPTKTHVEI
Procedure: (§1) ANTAGONISM OF IODINATED TACHYKININ BINDING TO NK1 AND NK2 RECEPTORS BY PUTATIVE ANTAGONISTS
(§2) The NK1 receptor affinity of proposed tachykinin antagonists was evaluated in guinea pig lungs (Keystone Biologicals, Cleveland, Ohio), affinity for the NK2 receptor evaluated in HSKR-1 cells (which are mouse 3T3 fibroblasts expressing the human jejunal NK2 receptor) and NK-3 receptor affinity was evaluated in freshly collected guinea pig cerebral cortex. Tissues or cells were homogenized with a Polytron in 15 volumes of 50 mM Tris-HCl buffer (pH 7.4, 4° C.) and centrifuged. The pellet was resuspended in Tris-HCl buffer and was centrifuged; the pellet was washed twice by resuspension. The final pellet was resuspended at a concentration of 40 mg/ml for tissues (guinea pig lung and cerebral cortex) and 20 mg/ml for cells in incubation buffer and remained at room temperature for at least 15 min prior to use. […] Filter bound radioactivity was quantitated in a gamma counter. […] Specific binding was calculated by subtracting nonspecific binding from total binding. Competition of iodinated SP, NKA, or eledoisin binding by test compounds or standards was expressed as a percentage of this maximum competition. […]

NK-3 receptor = biological target: T2, NK-3 receptor (Cavia porcellus, UniProt P30098); assay: Antagonism of iodinated tachykinin (125I-eledoisin) binding to NK3 receptor in guinea pig cerebral cortex
T2 construct: freshly collected guinea pig cerebral cortex; from tissue; host or cells: guinea pig cerebral cortex membranes
T2 sequence (P30098 1-440): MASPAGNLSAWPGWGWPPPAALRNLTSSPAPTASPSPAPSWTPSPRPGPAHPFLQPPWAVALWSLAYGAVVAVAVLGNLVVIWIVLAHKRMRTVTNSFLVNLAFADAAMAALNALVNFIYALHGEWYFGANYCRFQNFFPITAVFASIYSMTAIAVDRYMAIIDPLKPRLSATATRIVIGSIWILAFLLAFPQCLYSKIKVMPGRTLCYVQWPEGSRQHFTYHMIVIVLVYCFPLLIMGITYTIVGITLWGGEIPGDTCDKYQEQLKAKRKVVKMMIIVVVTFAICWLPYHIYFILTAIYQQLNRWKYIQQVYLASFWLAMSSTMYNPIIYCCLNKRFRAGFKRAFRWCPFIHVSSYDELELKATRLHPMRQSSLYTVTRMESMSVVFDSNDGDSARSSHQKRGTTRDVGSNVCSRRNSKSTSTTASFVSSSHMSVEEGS
Procedure: as §1, §2

NK1 receptor [2] = biological target: T3, NK1 receptor (Cavia porcellus, UniProt P30547); assay: Antagonism of iodinated tachykinin (125I-substance P) binding to NK1 receptor in guinea pig lungs; set-up: tissue Keystone Biologicals, Cleveland, Ohio; host or cells: guinea pig lung membranes
T3 sequence (P30547 whole entry): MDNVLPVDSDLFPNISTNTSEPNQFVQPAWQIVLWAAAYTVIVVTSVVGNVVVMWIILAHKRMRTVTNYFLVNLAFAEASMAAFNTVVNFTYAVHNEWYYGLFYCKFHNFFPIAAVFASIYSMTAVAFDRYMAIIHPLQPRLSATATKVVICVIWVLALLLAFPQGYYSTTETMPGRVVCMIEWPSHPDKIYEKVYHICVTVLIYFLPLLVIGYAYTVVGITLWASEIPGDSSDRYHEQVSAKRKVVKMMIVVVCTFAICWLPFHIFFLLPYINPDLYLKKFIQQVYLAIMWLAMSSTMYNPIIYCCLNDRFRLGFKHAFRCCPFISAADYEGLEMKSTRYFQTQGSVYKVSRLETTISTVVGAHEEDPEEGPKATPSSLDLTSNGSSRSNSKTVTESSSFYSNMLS
Procedure: as §1
The NK1 receptor affinity of proposed tachykinin antagonists was evaluated in guinea pig lungs (Keystone Biologicals, Cleveland, Ohio), affinity for the NK2 receptor evaluated in HSKR-1 cells (which are mouse 3T3 fibroblasts expressing the human jejunal NK2 receptor) and NK-3 receptor affinity was evaluated in freshly collected guinea pig cerebral cortex. Tissues or cells were homogenized with a Polytron in 15 volumes of 50 mM Tris-HCl buffer (pH 7.4, 4° C.) and centrifuged. The pellet was resuspended in Tris-HCl buffer and was centrifuged; the pellet was washed twice by resuspension. The final pellet was resuspended at a concentration of 40 mg/ml for tissues (guinea pig lung and cerebral cortex) and 20 mg/ml for cells in incubation buffer and remained at room temperature for at least 15 min prior to use. Receptor binding was initiated by addition of 250 ul membrane preparation in duplicate to 0.1 nM of the following radioligands: ^125 I-Bolton Hunter Lys-3 labeled substance P; ^125 iodohistidyl-1-neurokinin A; and ^125 I-Bolton Hunter labeled Lys-4 eledoisin in a final volume of 500 ul of buffer containing 50 mM Tris-HCl (pH 7.4 at room temperature), 0.1% bovine serum albumin, 2 mM MnCl2, 40 ug/ml bacitracin, 4 µg/ml leupeptin and chymostatin, 1 μM thiorphan and various doses of the putative tachykinin antagonists. Incubations were performed at room temperature for 90 min (NK1 receptor assays) or 2 hr (NK2 and NK3 receptor assays); binding was terminated by addition of 50 mM Tris-HCl buffer (pH 7.4, 4° C.) and filtration under vacuum through GF/B filters presoaked with 0.1% polyethyleneimine (NK1 receptor assays) or 0.5% bovine serum albumin (NK2 and NK3 receptor assays). Filter bound radioactivity was quantitated in a gamma counter. Nonspecific binding was defined as binding in the presence of 1 μM substance P, neurokinin A, or eledoisin. Specific binding was calculated by subtracting nonspecific binding from total binding. Competition of iodinated SP, NKA, or eledoisin binding by test compounds or standards was expressed as a percentage of this maximum competition. IC50 values (concentration required to inhibit 50% of receptor binding) were generated for each of the test compounds by nonlinear regression using an iterative curve fitting program (GraphPAD Inplot, San Diego, Calif.).

NK1 receptor [3] = biological target: T3, NK1 receptor; assay: Antagonism of SP-induced plasma protein extravasation in guinea pig trachea; type: in vivo; set-up: SP-induced plasma protein extravasation in guinea pig trachea; from tissue; host or cells: living guinea pig; trachea and primary bronchi; conditions: i.v.
Procedure: ANTAGONISM OF SP-INDUCED PLASMA PROTEIN EXTRAVASATION IN GUINEA PIG TRACHEA
SP-induced protein leakage through postcapillary venules was assessed by measuring Evans Blue dye accumulation in guinea pig trachea. Animals were anesthetized with pentobarbital then injected with Evans Blue dye (20 mg/kg, i.v., prepared in 0.9% NaCl solution). One minute after dye administration, the antagonist was administered (i.v.) followed by SP (0.3 nmole/kg, i.v.) and, after 5 min, excess dye removed from the circulation by transcardiac perfusion with 50 ml 0.9% NaCl solution. The trachea and primary bronchi were removed, blotted dry and weighed. Dye quantitation was performed spectrophotometrically ([…]) after extracting tissues in formamide for 24 hr at 50° C. Values were subtracted from background (dye only, no agonist). ED50 (dose of compound which inhibits SP-induced plasma protein extravasation by 50%) was calculated from linear regression analysis.

## COc1cc(C(=O)N2CCC(CCN3CCC(C(N)=O)(c4ccccc4)CC3)(c3ccc(Cl)c(Cl)c3)C2)cc(OC)c1OC (centres unmarked) [Example 3, 1-[2-[3-(3,4-dichloro-phenyl)-1-(3,4,5-trimethoxy-benzoyl)-pyrrolidin-3-yl]-ethyl]-4-phenyl-piperidine-4-carboxylic acid amide]
[1]
  affinity for NK2 receptors (in words): high affinity
NK-3 receptor
  affinity for NK3 receptors (in words): high affinity
NK1 receptor [2]
  affinity for NK1 receptors (in words): high affinity
NK1 receptor [3]
  antagonism of SP-induced plasma protein extravasation (in words, FIG. 2): dose related antagonism
NK1 receptor [3]; Example 3 versus Example 20A
  relative potency as NK-1 receptor antagonists (in words): equipotent
